Tests used:
[1] = target: T1, αVβ3 integrin (293-β3 cells) (Homo sapiens, UniProt P05106+P06756); assay: 293-β3 cell adhesion assay (adhesion to immobilized vitronectin); assay type: cell-based; details: 200 uM Mn2+, read-out: 293-β3 (IC50 <10 μM)
T1 construct: expressed in transfected cells; host or cells: 293 human embryonic kidney cells (293-β3)
Source text: While the β3 subunit of αVβ3 is only known to complex with αV or αIIb, the αV subunit complexes with multiple β subunits. The three αV integrins most homologous with αVβ3 are αVβ1, αVβ5 and αVβ6, with 43%, 56% and 47% amino acid identity in the β subunits, respectively. To evaluate the selectivity of compounds between the integrins αVβ3 and αVβ6, cell-based assays were established using the 293 human embryonic kidney cell line. 293 cells express αVβ1, but little to no detectable αVβ3 or αVβ6. cDNAs for β3 and β6 were transfected separately into 293 cells to generate 293-β3 and 293-β6 cells, respectively. High surface expression of αVβ3 and αVβ6 was confirmed by flow cytometry. Conditions were established for each cell line in which cell adhesion to immobilized human vitronectin was mediated by the appropriate integrin, as determined by a panel of integrin-specific, neutralizing monoclonal antibodies. Briefly, cells were incubated with inhibitor in the presence of 200 uM Mn^2+, allowed to adhere to immobilized vitronectin, washed, and adherent cells are detected endogenous alkaline phosphatase and para-nitrophenyl phosphate. An 8-point dose-response curve using either 10-fold or 3-fold dilutions of compound was evaluated by fitting a four-parameter logistic, nonlinear model (using SAS).

[2] = target: T2, αVβ6 (HT-29 human colon carcinoma cells) (Homo sapiens, UniProt P06756+P18564); assay: HT-29 cell adhesion assay (adhesion to immobilized LAP); assay type: cell-based; details: selectivity ratio: IC50 αVβ6 (HT-29) over IC50 β3
T2 construct: endogenous in cells; host or cells: HT-29 human colon carcinoma cells
T2 sequence (P06756 31-889 limits assumed): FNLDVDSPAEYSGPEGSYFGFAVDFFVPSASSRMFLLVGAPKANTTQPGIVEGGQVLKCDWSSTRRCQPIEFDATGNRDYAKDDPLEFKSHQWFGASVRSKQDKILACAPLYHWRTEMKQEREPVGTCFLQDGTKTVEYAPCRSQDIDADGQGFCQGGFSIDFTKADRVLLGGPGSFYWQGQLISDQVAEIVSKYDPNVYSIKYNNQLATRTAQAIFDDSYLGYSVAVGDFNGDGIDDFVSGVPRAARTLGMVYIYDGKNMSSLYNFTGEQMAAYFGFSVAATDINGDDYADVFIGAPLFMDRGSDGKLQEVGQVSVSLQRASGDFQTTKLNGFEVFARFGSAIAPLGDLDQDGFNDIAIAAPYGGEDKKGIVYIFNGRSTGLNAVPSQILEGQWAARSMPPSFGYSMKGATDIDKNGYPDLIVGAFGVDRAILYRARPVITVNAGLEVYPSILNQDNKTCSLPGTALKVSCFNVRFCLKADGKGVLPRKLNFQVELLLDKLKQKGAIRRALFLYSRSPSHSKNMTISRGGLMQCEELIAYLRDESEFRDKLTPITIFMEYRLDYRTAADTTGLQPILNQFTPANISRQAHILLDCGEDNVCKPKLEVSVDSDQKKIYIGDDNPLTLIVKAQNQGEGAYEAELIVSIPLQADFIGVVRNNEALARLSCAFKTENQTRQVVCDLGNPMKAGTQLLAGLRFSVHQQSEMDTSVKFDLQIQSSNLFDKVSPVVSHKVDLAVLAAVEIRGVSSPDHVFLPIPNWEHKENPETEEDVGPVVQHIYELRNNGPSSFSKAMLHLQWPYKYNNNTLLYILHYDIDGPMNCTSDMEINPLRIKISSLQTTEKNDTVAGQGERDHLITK
T2 sequence (P06756 891-1048 partner limits assumed): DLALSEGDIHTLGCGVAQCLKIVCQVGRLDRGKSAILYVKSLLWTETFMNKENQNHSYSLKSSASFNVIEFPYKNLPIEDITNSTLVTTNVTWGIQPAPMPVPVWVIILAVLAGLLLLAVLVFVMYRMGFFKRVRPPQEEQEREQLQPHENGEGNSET
T2 sequence (P18564 22-788): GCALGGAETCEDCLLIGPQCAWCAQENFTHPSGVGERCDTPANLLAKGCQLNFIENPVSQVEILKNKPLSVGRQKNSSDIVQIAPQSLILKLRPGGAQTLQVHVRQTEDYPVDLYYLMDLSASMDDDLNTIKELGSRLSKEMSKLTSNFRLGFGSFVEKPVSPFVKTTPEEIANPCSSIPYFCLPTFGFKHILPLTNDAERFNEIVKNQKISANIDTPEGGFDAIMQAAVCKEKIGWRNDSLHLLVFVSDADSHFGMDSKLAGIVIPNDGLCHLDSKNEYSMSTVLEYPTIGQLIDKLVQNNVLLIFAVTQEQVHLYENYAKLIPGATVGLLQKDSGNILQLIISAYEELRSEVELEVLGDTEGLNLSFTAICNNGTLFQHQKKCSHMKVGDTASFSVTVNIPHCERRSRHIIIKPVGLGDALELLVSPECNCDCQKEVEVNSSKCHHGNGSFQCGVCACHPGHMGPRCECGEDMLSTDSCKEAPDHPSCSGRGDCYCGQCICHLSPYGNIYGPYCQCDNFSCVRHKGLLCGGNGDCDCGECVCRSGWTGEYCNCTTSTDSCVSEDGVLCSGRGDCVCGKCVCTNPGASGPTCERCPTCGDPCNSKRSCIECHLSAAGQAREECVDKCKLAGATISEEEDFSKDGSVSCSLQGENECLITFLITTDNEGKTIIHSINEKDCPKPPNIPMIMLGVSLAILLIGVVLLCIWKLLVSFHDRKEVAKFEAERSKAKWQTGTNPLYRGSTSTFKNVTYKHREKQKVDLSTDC
Procedure: To evaluate compound potency for membrane-bound αVβ6 an additional cell-based adhesion assay was established using the HT-29 human colon carcinoma cell line. High surface expression of αVβ6 on HT-29 cells was confirmed by flow cytometry. Conditions were established in which cell adhesion to immobilized human latency associated peptide (LAP) was mediated by the αVβ6, as determined by a panel of integrin-specific, neutralizing monoclonal antibodies. Briefly, cells were incubated with inhibitor in the presence of 200 uM Mn^2+, allowed to adhere to immobilized LAP, washed, and adherent cells are detected by quantifying endogenous alkaline phosphatase using para-nitrophenyl phosphate. An 8-point dose-response curve using either 10-fold or 3-fold dilutions of compound was evaluated by fitting a four-parameter logistic, nonlinear model (using SAS). The compounds evaluated were relatively ineffective at inhibition of αVβ6-mediated cell adhesion. The selective antagonism of the αVβ3 integrin is viewed as desirable in this class of compounds, as αVβ6 may also play a role in normal physiological processes of tissue repair and cellular turnover that routinely occur in the skin and pulmonary tissues.

[3] = target: T3, Human fibrinogen receptor (IIb/IIIa) (Homo sapiens, UniProt P05106+P08514); assay: Purified IIb/IIIa receptor assay (solid phase receptor assay, SPRA); assay type: binding; details: selectivity ratio: IC50 αIIbβ3 (solid phase receptor assay) over IC50 β3
T3 construct: Human fibrinogen receptor (IIb/IIIa) was purified from outdated platelets; from tissue; host or cells: outdated human platelets
T3 sequence (P08514 32-887 limits assumed): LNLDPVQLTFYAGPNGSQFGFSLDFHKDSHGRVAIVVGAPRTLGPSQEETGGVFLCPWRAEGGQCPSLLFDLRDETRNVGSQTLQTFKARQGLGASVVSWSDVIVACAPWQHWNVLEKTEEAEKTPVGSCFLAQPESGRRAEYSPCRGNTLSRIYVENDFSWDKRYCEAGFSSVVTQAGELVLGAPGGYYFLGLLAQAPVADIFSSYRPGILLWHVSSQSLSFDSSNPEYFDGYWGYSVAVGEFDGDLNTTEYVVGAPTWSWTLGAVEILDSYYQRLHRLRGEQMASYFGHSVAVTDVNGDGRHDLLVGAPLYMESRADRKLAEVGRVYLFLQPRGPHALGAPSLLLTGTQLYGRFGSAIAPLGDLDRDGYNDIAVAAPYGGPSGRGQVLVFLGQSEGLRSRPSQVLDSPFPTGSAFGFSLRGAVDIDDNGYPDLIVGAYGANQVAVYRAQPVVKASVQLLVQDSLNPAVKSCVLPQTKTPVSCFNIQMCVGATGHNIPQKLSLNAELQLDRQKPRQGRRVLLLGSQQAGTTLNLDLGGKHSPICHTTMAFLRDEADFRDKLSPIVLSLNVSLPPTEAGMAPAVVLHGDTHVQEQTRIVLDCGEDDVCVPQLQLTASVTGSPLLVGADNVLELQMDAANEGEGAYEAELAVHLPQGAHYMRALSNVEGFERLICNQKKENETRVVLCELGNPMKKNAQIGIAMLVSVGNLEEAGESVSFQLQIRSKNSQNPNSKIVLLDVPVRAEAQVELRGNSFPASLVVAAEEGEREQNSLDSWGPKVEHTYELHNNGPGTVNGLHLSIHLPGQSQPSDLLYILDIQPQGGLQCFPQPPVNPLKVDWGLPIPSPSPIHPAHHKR
T3 sequence (P08514 891-1039 partner limits assumed): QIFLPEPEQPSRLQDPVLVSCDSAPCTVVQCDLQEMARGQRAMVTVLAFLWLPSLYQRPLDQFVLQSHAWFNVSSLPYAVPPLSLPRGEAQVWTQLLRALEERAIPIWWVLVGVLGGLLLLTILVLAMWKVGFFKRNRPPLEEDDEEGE
T3 sequence (P05106 27-788): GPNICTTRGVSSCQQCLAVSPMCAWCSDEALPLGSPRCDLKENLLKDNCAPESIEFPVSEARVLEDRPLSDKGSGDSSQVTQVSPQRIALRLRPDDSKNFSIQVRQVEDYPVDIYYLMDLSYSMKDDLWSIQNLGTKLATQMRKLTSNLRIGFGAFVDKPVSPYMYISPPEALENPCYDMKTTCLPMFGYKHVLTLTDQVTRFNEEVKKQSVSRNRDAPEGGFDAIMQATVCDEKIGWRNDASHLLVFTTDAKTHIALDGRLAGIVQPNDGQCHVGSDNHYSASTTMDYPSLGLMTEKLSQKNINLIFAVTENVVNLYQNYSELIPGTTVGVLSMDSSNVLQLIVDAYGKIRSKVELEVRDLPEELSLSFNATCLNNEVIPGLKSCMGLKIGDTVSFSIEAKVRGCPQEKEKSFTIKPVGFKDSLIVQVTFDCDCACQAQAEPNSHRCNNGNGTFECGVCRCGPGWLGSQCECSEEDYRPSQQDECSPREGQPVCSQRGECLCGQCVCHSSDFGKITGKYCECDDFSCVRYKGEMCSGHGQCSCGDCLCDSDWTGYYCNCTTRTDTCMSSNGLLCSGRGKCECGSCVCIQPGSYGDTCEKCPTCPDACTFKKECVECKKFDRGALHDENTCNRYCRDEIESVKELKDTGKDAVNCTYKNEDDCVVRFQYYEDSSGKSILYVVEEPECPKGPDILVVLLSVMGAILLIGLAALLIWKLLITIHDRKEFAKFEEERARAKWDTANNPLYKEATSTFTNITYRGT
Source text: Human fibrinogen receptor (IIb/IIIa) was purified from outdated platelets. (Pytela, R., Pierschbacher, M. D., Argraves, S., Suzuki, S., and Rouslahti, E. “Arginine-Glycine-Aspartic acid adhesion receptors”, Methods in Enzymology 144(1987):475-489.) Human vitronectin was purified from fresh frozen plasma as described in Yatohgo, T., Izumi, M., Kashiwagi, H., and Hayashi, M., “Novel purification of vitronectin from human plasma by heparin affinity chromatography,” Cell Structure and Function 13(1988):281-292. Biotinylated human vitronectin was prepared by coupling NHS-biotin from Pierce Chemical Company (Rockford, IL) to purified vitronectin as previously described. (Charo, I. F., Nannizzi, L., Phillips, D. R., Hsu, M. A., Scarborough, R. M., “Inhibition of fibrinogen binding to GP IIb/IIIa by a GP IIIa peptide”, J. Biol. Chem. 266(3)(1991): 1415-1421.) Assay buffer, OPD substrate tablets, and RIA grade BSA were obtained from Sigma (St. Louis, Mo.). Anti-biotin antibody was obtained from Sigma (St. Louis, Mo.). Nalge Nunc-Immuno microtiter plates were obtained from (Rochester, N.Y.). ADP reagent was obtained from Sigma (St. Louis, Mo.).
This assay is essentially the same reported in Niiya, K., Hodson, E., Bader, R., Byers-Ward, V. Koziol, J. A., Plow, E. F. and Ruggeri, Z. M., “Increased surface expression of the membrane glycoprotein IIb/IIIa complex induced by platelet activation: Relationships to the binding of fibrinogen and platelet aggregation”, Blood 70(1987):475-483. The purified human fibrinogen receptor (IIb/IIIa) was diluted from stock solutions to 1.0 μg/mL in Tris-buffered saline containing 1.0 mM Ca^++, Mg^++, and Mn^++, pH 7.4 (TBS^+++). The diluted receptor was immediately transferred to Nalge Nunc-Immuno microtiter plates at 100 μL/well (100 ng receptor/well). The plates were sealed and incubated overnight at 4° C. to allow the receptors to bind to the wells. All remaining steps were at room temperature. The assay plates were emptied and 200 μL of 1% RIA grade BSA in TBS^+++ (TBS^+++/BSA) were added to block exposed plastic surfaces. Following a 2 hour incubation, the assay plates were washed with TBS^+++ using a 96 well plate washer. Logarithmic serial dilution of the test compound and controls were made starting at a stock concentration of […] and using 2 nM biotinylated vitronectin in TBS^+++/BSA as the diluent. This premixing of labeled ligand with test (or control) ligand, and subsequent transfer of 50 μL aliquots to the assay plate was carried out with a CETUS Propette robot; the final concentration of the labeled ligand was 1 nM and the highest concentration of test compound was 1.0×10^−4 M. The competition occurred for two hours after which all wells were washed with a plate washer as before. Affinity purified horseradish peroxidase labeled goat anti-biotin antibody was diluted 1:2000 in TBS^+++/BSA and 125 μL were added to each well. After 45 minutes, the plates were washed and incubated with […] substrate in 100 mM/L citrate buffer, pH 5.0. The plate was read with a microtiter plate reader at a wavelength of 450 nm and when the maximum-binding control wells reached an absorbance of about 1.0, the final A450 were recorded for analysis. The data were analyzed using a macro written for use with the EXCELJ spreadsheet program. The mean, standard deviation, and %CV were determined for duplicate concentrations. The mean A450 values were normalized to the mean of four maximum-binding controls (no competitor added)(B-MAX). The normalized values were subjected to a four parameter curve fit algorithm, [Robard et al., Int.

T1 sequence (P06756 31-889 limits assumed): as the sequence (P06756 31-889 limits assumed) above
T1 sequence (P06756 891-1048 partner limits assumed): as the sequence (P06756 891-1048 partner limits assumed) above
T1 sequence (P05106 27-788): as the sequence (P05106 27-788) above

Row | SMILES | IC50 [1] [µM] | HT-29 β-6 Selectivity* (β6/β3) [2] | SPRA AIIbB3 Selectivity* IIbIIIa/β3 [3]
1 | O=C(O)C(F)(F)F.O=C(O)CC(Cc1nc(CCCCNc2ccccn2)no1)c1cnc2ccccc2c1 (stereo not drawn) [Example 19, 3-quinolin-3-yl-4-{3-[4-(pyridin-2-ylamino)butyl]-1,2,4-oxadiazol-5-yl}-butanoic acid] | < 10 | +++ (Selectivity Ratio >100 +++) | ++ (Selectivity Ratio of 10-100 ++)
2 | CC(C)(CC(=O)O)Cc1nc(CCCCNc2ccccn2)no1 [Example 62, β,β-dimethyl-3-[4-(2-pyridinylamino)butyl]-1,2,4-oxadiazole-5-butanoic acid] | < 10 | +++ (Selectivity Ratio >100 +++) | +++ (Selectivity Ratio >100 +++)
3 | CCC(CC)(CC(=O)O)Cc1nc(CCCc2ccc3c(n2)NCCC3)no1 [Example 45, 3-Ethyl-3-{3-[3-(5,6,7,8-tetrahydro-[1,8]naphthyridin-2-yl)-propyl]-[1,2,4]oxadiazol-5-ylmethyl}-pentanoic acid] | < 10 | ++ (Selectivity Ratio of 10-100 ++) | ++ (Selectivity Ratio of 10-100 ++)
4 | CC(C)(CC(=O)O)Cc1nc(CCCc2ccc3c(n2)NCCC3)no1.O=C(O)C(F)(F)F [Example 12, 3,3-dimethyl-4-{3-[3-(5,6,7,8-tetrahydro-1,8-naphthyridin-2-yl)propyl]-1,2,4-oxadiazol-5-yl}butanoic acid] | < 10 | +++ (Selectivity Ratio >100 +++) | +++ (Selectivity Ratio >100 +++)
5 | CCC(C)(CC(=O)O)Cc1nc(CCCc2ccc3c(n2)NCCC3)no1 (stereo not drawn) [Example 43, 3-Methyl-3-{3-[3-(5,6,7,8-tetrahydro-[1,8]naphthyridin-2-yl)-propyl]-[1,2,4]oxadiazol-5-ylmethyl}-pentanoic acid] | < 10 | +++ (Selectivity Ratio >100 +++) | +++ (Selectivity Ratio >100 +++)
6 | O=C(O)CC(Cc1nc(CCCCNc2ccccn2)no1)c1ccccc1 (stereo not drawn) [Example 35, 3-phenyl-4-{3-[4-(pyridin-2-ylamino)butyl]-1,2,4-oxadiazol-5-yl}butanoic acid] | < 10 | +++ (Selectivity Ratio >100 +++) | ++ (Selectivity Ratio of 10-100 ++)
7 | O=C(O)C(F)(F)F.O=C(O)CC(Cc1nc(CCCc2ccc3c(n2)NCCC3)no1)c1ccc(F)cc1 (stereo not drawn) [Example 26, 3-(4-fluorophenyl)-4-{3-[3-(5,6,7,8-tetrahydro-1,8-naphthyridin-2-yl)propyl]-1,2,4-oxadiazol-5-yl}butanoic acid trifluoroacetate] | < 10 | +++ (Selectivity Ratio >100 +++) | +++ (Selectivity Ratio >100 +++)
8 | COc1ccc(C(CC(=O)O)Cc2nc(CCCCNc3ccccn3)no2)cc1.O=C(O)C(F)(F)F (stereo not drawn) [Example 23, 3-(4-methoxyphenyl)-4-{3-[4-(pyridin-2-ylamino)butyl]-1,2,4-oxadiazol-5-yl}butanoic acid] | < 10 | +++ (Selectivity Ratio >100 +++) | ++ (Selectivity Ratio of 10-100 ++)
9 | CC(CC(=O)O)(Cc1nc(CCCc2ccc3c(n2)NCCC3)no1)c1ccccc1 (stereo not drawn) [Example 47, 3-Methyl-3-phenyl-4-{3-[3-(5,6,7,8-tetrahydro-[1,8]naphthyridin-2-yl)-propyl]-[1,2,4]oxadiazol-5-yl}-butyric acid] | < 10 | +++ (Selectivity Ratio >100 +++) | +++ (Selectivity Ratio >100 +++)
10 | CCCC(C)(CC(=O)O)Cc1nc(CCCc2ccc3c(n2)NCCC3)no1 (stereo not drawn) [Example 44, 3-Methyl-3-{3-[3-(5,6,7,8-tetrahydro-[1,8]naphthyridin-2-yl)-propyl]-[1,2,4]oxadiazol-5-ylmethyl}-hexanoic acid] | < 10 | +++ (Selectivity Ratio >100 +++) | +++ (Selectivity Ratio >100 +++)
11 | O=C(O)C(F)(F)F.O=C(O)CC(Cc1nc(CCCCNc2ccccn2)no1)c1cccc(F)c1 (stereo not drawn) [Example 25, 3-(3-fluorophenyl)-4-{3-[4-(pyridin-2-ylamino)butyl]-1,2,4-oxadiazol-5-yl}butanoic acid trifluoroacetate] | < 10 | +++ (Selectivity Ratio >100 +++) | ++ (Selectivity Ratio of 10-100 ++)
12 | CCCC(C)(CC(=O)O)Cc1nc(CCCCNc2ccccn2)no1 (stereo not drawn) [Example 38, 3-methyl-3-({3-[4-(pyridin-2-ylamino)butyl]-1,2,4-oxadiazol-5-yl}methyl)-hexanoic acid] | < 10 | +++ (Selectivity Ratio >100 +++) | +++ (Selectivity Ratio >100 +++)
13 | O=C(O)C(F)(F)F.O=C(O)CC(Cc1nc(CCCc2ccc3c(n2)NCCC3)no1)c1cccnc1 (stereo not drawn) [Example 32, 3-pyridin-3-yl-4-{3-[3-(5,6,7,8-tetrahydro-1,8-naphthyridin-2-yl)propyl]-1,2,4-oxadiazol-5-yl}butanoic acid] | < 10 | +++ (Selectivity Ratio >100 +++) | +++ (Selectivity Ratio >100 +++)
14 | CC(CC(=O)O)Cc1nc(CCCc2ccc3c(n2)NCCC3)no1 (stereo not drawn) [Example 70, 3-methyl-4-{3-[3-(5,6,7,8-tetrahydro-1,8-naphthyridin-2-yl)propyl]-1,2,4-oxadiazol-5-yl}butanoic acid] | < 10 | +++ (Selectivity Ratio >100 +++) | +++ (Selectivity Ratio >100 +++)
